Laboratory results taken from ChEMBL document CHEMBL1149853, “Cannabinoid ester constituents from high-potency Cannabis sativa” (J Nat Prod, 2008).
≈ marks a conversion by molar mass, not a printed value. Calls of active or inactive are those of the source. No cut-off for these calls is given here.

What was measured:
[1] = target: Cannabinoid receptor 1 (Homo sapiens) (UniProt P21554); test: Binding affinity to CB1 receptor
Candida albicans = test: Antimicrobial activity against Candida albicans ATCC 90028; type: functional, organism-based
Plasmodium falciparum [2] = test: Antimicrobial activity against Plasmodium falciparum D6; type: functional, organism-based
Plasmodium falciparum [3] = test: Antimicrobial activity against Plasmodium falciparum W2; type: functional, organism-based

Chain of Cannabinoid receptor 1 (Homo sapiens) (P21554 whole entry): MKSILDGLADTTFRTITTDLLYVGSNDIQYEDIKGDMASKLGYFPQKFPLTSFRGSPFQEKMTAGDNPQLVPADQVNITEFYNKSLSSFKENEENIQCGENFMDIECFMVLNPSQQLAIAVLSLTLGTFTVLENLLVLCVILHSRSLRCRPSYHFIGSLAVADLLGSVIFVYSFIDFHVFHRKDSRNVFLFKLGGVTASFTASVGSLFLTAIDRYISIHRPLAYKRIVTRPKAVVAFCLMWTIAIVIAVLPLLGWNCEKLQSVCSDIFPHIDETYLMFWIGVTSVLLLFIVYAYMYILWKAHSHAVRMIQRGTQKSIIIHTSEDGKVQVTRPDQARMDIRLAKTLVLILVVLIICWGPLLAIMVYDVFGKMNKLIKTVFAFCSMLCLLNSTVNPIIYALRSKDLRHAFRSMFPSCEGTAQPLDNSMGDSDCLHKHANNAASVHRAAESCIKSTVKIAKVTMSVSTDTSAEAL

SMILES | Activity [1] | further results
CCCCCc1cc2c(c(O)c1C(=O)O[C@@H]1C(C)(C)[C@@H]3CC[C@@]1(C)C3)[C@@H]1C=C(C)CC[C@H]1C(C)(C)O2 | inactive | 
CCCCCc1cc2c(c(O)c1C(=O)O[C@H]1C[C@H]3CC[C@]1(C)C3(C)C)[C@@H]1C=C(C)CC[C@H]1C(C)(C)O2 | inactive | 
CCCCCc1cc(O)c(C/C=C(\C)CCC=C(C)C)c(O)c1C(=O)O[C@@]1(C)CC[C@@H](C(C)C)[C@@H]2C=C(C)CC[C@H]21 | inactive | 
CCCCCc1cc2c(c(O)c1C(=O)O)-c1cc(C)ccc1C(C)(C)O2 | inactive | 
CCCCCc1cc2c(c(O)c1C(=O)OC(C)(C)C1CC=C(C)CC1)[C@@H]1C=C(C)CC[C@H]1C(C)(C)O2 (some centres not stated) | inactive | 
CCCCCc1cc(O)c(C/C=C(\C)CCC=C(C)C)c(O)c1C(=O)O | inactive | 
CCCCCc1cc2c(c(O)c1C(=O)OC(C)(C)[C@@H]1CC[C@@]3(C)CCCC(C)=C3C1)[C@@H]1C=C(C)CC[C@H]1C(C)(C)O2 | inactive | 
CCCCCc1cc2c(c(O)c1C(=O)OC1(C(C)C)CC=C(C)CC1)-c1cc(C)ccc1C(C)(C)O2 (configuration not stated) | inactive | IC50 (Candida albicans): 8.5 µg/mL (≈ 17.3 µM); IC50 (Plasmodium falciparum [2]): 2.7 µg/mL (≈ 5.5 µM); IC50 (Plasmodium falciparum [3]): 2.4 µg/mL (≈ 4.89 µM)
CCCCCc1cc2c(c(O)c1C(=O)O[C@H]1C(C)(C)[C@@H]3CC[C@@]1(C)C3)[C@@H]1C=C(C)CC[C@H]1C(C)(C)O2 | inactive | 
CCCCCc1cc2c(c(O)c1C(=O)O[C@H]1C[C@H]3CC[C@@]1(C)C3(C)C)[C@@H]1C=C(C)CC[C@H]1C(C)(C)O2 | inactive | 
CCCCCc1cc2c(c(O)c1C(=O)O[C@@]1(C)CC[C@@H](C(C)C)[C@@H]3C=C(C)CC[C@H]31)[C@@H]1C=C(C)CC[C@H]1C(C)(C)O2 | inactive | 
CCCCCc1cc(O)c(C/C=C(\C)CCC=C(C)C)c(O)c1C(=O)OC(C)(C)[C@@H]1CC[C@@]2(C)CCCC(C)=C2C1 | inactive | 
CCCCCc1cc2c(c(O)c1C(=O)OC1(C(C)C)CC=C(C)CC1)[C@@H]1C=C(C)CC[C@H]1C(C)(C)O2 (some centres not stated) | inactive | 
CCCCCc1cc2c(c(O)c1C(=O)O)[C@@H]1C=C(C)CC[C@H]1C(C)(C)O2 | inactive | 
